Experimental findings from patent publication US11208412B2 (DAEGU-GYEONGBUK MEDICAL INNOVATION FOUNDATION, priority 2017, dated 2021) are described below.

What all share (assay): Kinase selectivity, DiscoverX scanMAX Kinase assay panel (% control)
Assay type in all cases: binding

For experiment [1], the target named is T1, kinases of the scanMAX Kinase assay panel (Homo sapiens, UniProt P00519, F317I).
T1 construct: purchased DiscoverX Co. (contract measurement) scanMAX Kinase assay panel
The settings on record: 1 uM. The gist of the method:
(§1)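 Read-out is % control, normalised so a positive-control compound sits at 0% and DMSO at 100%: (test − positive)/(negative − positive)×100. Each kinase received the compound at 1 uM in DMSO. A value below 35% counts as activity.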

Experiment [2] has as its target T2, kinases of the scanMAX Kinase assay panel (Homo sapiens, UniProt Q6ZWH5).
T2 construct: purchased DiscoverX Co. (contract measurement) scanMAX Kinase assay panel
T2 sequence (Q6ZWH5 1-1172): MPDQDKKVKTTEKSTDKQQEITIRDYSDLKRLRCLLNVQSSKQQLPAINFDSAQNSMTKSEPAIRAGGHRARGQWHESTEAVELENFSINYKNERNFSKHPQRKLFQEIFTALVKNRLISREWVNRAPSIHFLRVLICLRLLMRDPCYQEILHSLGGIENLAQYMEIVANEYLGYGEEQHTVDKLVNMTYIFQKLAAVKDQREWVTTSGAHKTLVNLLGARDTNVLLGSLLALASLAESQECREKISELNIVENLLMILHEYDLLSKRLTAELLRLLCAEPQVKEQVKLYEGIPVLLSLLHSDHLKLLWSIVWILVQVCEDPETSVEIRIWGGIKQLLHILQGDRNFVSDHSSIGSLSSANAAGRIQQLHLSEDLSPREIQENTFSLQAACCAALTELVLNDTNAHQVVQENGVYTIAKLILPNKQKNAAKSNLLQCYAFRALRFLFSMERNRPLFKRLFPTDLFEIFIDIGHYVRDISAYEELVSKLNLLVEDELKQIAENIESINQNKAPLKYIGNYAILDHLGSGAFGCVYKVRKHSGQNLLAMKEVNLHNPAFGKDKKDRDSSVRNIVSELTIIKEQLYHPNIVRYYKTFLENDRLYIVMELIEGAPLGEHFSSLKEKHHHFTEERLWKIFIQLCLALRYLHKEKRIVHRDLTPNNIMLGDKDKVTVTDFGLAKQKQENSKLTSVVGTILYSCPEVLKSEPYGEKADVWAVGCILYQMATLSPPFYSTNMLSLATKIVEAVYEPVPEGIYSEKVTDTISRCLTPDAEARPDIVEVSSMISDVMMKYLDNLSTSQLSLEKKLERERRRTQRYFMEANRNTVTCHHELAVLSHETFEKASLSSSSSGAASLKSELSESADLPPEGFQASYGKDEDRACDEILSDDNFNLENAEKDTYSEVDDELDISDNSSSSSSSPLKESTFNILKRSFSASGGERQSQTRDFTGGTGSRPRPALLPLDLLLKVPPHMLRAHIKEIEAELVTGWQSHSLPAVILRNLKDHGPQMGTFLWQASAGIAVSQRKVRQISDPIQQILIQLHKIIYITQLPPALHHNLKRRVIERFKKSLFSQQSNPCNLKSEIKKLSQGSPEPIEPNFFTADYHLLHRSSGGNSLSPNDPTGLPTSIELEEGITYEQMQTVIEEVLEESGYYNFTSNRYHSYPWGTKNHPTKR
The settings on record: NEK10; 1 uM. The gist of the method:
as §1

The target of experiment [3] is T3, kinases of the scanMAX Kinase assay panel (Homo sapiens, UniProt Q9UQ88).
T3 construct: purchased DiscoverX Co. (contract measurement) scanMAX Kinase assay panel
T3 sequence (Q9UQ88 1-783): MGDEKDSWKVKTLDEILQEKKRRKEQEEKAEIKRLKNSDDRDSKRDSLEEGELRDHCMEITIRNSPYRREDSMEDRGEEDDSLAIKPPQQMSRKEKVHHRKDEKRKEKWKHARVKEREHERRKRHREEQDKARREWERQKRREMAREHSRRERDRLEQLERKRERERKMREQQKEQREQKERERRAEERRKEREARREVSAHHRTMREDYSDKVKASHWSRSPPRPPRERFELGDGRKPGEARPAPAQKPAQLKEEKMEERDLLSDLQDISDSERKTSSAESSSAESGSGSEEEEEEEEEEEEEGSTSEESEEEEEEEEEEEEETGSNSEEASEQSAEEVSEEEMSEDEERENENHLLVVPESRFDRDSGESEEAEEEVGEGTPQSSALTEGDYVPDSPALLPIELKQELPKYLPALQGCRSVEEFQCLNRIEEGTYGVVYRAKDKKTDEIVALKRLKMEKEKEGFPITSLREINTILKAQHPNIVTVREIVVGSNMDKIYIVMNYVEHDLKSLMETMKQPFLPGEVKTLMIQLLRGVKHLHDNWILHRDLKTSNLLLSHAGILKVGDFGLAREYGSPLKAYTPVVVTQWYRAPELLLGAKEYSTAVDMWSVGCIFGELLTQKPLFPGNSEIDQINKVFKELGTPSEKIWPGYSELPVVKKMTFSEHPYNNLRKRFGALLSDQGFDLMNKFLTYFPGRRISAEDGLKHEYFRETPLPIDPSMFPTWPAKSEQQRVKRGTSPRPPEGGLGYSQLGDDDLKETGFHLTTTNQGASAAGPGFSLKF
The settings on record: CDC2L2; 1 uM. Put shortly: as §1

Experiment [4] has as its target T4, kinases of the scanMAX Kinase assay panel (Homo sapiens, UniProt Q8NEV4).
T4 construct: purchased DiscoverX Co. (contract measurement) scanMAX Kinase assay panel
The settings on record: MYO3A; 1 uM. Put shortly: as §1

Experiment [5] concerns the target T5, kinases of the scanMAX Kinase assay panel (Homo sapiens, UniProt Q16288).
T5 construct: purchased DiscoverX Co. (contract measurement) scanMAX Kinase assay panel
The settings on record: kinase TRKC; 1 uM in DMSO. Put shortly:
as §1

Experiment [6] deals with T6, kinases of the scanMAX Kinase assay panel (Homo sapiens, UniProt Q2M2I8).
T6 construct: purchased DiscoverX Co. (contract measurement) scanMAX Kinase assay panel
T6 sequence (Q2M2I8 whole entry): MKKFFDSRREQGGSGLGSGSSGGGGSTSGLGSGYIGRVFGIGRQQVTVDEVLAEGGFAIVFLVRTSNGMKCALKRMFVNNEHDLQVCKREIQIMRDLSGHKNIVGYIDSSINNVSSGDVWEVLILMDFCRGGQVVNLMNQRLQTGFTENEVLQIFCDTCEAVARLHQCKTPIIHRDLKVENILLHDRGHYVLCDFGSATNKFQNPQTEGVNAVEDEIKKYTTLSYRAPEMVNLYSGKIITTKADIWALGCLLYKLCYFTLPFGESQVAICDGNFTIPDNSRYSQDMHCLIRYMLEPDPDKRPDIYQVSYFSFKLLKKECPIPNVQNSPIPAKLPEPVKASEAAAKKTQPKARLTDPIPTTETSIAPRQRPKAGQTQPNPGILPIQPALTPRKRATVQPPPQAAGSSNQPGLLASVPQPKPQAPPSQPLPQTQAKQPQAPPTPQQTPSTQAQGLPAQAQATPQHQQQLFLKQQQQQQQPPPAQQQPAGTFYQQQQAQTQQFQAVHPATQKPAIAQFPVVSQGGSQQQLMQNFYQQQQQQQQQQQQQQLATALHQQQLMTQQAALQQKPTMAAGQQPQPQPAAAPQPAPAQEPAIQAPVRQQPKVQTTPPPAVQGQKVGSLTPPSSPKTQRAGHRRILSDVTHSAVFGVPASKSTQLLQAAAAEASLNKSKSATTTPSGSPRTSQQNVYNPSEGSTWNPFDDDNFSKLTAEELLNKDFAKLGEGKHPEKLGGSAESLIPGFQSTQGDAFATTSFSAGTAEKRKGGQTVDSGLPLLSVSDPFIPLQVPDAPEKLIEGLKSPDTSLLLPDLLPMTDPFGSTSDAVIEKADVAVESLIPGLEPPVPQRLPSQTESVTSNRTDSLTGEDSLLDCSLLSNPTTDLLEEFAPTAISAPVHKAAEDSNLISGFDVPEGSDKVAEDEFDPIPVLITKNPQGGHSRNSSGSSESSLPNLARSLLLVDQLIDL
The settings on record: AAK1; 1 uM. Put shortly: as §1

T4 sequence (Q8NEV4 whole entry): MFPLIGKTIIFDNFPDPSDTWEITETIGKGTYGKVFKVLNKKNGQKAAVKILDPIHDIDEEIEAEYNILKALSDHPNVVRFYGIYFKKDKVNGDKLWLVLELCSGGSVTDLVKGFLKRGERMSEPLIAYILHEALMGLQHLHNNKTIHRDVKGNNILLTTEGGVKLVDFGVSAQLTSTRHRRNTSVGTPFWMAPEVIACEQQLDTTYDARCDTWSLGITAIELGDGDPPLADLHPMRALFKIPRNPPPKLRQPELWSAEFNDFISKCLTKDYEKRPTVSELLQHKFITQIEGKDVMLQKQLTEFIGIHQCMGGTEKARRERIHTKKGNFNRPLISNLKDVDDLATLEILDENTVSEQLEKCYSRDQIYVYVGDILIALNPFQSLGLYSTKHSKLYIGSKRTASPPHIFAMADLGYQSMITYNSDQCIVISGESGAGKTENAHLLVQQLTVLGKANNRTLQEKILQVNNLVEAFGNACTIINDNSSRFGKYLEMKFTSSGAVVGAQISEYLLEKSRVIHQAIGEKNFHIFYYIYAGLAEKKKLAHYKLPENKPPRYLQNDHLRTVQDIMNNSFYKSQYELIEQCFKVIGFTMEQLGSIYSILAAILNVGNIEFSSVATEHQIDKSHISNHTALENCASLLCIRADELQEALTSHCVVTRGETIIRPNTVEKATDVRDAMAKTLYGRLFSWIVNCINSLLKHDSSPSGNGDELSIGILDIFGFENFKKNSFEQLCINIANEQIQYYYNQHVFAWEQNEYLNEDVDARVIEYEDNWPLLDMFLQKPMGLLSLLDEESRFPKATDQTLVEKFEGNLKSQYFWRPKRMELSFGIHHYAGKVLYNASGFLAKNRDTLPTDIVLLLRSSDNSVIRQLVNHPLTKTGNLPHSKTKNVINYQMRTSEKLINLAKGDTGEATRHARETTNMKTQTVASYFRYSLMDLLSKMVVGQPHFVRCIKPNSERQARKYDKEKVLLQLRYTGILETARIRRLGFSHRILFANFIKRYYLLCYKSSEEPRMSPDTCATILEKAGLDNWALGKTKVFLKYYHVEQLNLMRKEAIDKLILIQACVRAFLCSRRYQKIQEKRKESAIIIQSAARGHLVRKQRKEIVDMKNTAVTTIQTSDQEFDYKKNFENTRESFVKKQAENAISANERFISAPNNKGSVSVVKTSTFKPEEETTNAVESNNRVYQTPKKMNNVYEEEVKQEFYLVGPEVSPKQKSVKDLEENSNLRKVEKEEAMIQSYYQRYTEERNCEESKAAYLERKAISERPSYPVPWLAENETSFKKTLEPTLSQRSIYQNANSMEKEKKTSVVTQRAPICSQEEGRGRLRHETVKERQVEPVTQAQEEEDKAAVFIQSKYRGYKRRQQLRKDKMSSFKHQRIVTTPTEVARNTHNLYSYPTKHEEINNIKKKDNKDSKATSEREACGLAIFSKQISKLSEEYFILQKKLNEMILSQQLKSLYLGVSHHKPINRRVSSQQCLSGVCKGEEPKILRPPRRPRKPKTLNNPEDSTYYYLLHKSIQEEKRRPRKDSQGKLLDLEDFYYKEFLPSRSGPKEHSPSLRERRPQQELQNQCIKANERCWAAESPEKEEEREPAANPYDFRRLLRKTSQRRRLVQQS
T1 sequence (P00519 whole entry F317I): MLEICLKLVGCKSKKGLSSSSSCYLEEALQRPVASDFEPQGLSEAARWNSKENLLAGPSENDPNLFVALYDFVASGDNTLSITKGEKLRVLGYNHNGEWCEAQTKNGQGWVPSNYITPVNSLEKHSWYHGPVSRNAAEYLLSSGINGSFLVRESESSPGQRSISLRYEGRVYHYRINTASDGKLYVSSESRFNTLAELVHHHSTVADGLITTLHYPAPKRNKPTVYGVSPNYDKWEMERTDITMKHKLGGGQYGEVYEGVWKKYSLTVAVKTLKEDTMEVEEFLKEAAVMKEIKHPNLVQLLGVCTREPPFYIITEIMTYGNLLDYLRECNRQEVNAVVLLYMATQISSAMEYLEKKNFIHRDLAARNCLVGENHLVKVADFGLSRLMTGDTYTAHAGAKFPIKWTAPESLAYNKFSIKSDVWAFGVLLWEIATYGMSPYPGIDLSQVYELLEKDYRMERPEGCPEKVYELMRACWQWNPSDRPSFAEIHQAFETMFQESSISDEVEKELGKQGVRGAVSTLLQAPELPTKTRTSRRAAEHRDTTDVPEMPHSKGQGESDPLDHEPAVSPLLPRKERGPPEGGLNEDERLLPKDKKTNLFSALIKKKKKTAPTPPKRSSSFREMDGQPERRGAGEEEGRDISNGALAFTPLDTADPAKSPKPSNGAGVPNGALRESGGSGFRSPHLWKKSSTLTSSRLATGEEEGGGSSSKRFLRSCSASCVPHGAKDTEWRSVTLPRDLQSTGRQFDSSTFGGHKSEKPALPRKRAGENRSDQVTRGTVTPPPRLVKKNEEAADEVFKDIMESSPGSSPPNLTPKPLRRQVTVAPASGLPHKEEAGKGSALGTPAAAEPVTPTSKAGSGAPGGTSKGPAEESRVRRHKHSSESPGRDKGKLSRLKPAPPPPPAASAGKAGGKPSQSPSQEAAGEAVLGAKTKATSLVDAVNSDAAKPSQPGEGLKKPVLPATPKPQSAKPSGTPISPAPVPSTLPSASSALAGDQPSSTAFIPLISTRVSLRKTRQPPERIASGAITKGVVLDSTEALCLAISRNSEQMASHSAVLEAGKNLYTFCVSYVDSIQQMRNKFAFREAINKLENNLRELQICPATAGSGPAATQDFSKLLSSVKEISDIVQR
T5 sequence (Q16288 32-839): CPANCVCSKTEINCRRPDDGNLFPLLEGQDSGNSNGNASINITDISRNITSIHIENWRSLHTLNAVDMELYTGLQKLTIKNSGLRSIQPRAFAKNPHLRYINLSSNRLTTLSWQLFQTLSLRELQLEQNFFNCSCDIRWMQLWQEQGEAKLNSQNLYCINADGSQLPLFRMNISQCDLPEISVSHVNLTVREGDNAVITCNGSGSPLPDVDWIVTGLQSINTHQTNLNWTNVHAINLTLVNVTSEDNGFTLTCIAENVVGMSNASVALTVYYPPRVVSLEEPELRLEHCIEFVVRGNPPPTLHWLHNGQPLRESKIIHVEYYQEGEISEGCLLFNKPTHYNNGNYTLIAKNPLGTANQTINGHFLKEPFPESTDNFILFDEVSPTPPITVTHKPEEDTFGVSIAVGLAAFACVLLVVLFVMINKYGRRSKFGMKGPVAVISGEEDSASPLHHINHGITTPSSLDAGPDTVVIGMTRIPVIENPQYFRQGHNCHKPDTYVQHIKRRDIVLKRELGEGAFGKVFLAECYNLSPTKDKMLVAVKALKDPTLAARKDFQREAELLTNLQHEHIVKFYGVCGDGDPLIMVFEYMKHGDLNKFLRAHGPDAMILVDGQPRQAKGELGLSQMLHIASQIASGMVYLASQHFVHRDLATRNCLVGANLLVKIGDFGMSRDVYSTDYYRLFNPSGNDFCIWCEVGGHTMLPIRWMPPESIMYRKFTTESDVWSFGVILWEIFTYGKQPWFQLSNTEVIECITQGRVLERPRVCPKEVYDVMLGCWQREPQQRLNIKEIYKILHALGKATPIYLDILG

For `CNc1nc(Nc2ccc(C(=O)N3CCOCC3)cc2OC)nc2[nH]cc(C#N)c12` [Example 1, 2-((2-methoxy-4-(morpholine-4-carbonyl)phenyl)amino)-4-(methylamino)-7H-pyrrolo[2,3-d]pyrimidine-5-carbonitrile], the remaining binding at 1 µM in experiment [1] (ABL1(F317I)-nonphosphorylated) is 99%; in experiment [1] (ABL1(F317I)-phosphorylated), 54%; in experiment [2], 53%; in experiment [3], 91%; in experiment [4] it was 68%; in experiment [5] it was 60%. Besides, the remaining binding at 1 µM in experiment [6] came to 78%.
Take `CC1(Nc2nc(Nc3cnn([C@H]4CCN(C5COC5)C[C@@H]4F)c3Cl)nc3[nH]cc(C#N)c23)CC1` [Example 52, 2-((5-chloro-1-((3S,4S)-3-fluoro-1-(oxetane-3-yl)piperidine-4-yl)-1H-pyrazole-4-yl)amino)((1-methylcyclopropyl)amino)-7H-pyrrolo[2,3-d]pyrimidine-5-carbonitrile]: the remaining binding at 1 µM is 25% in experiment [1] (ABL1(F317I)-nonphosphorylated); 7.6% in experiment [1] (ABL1(F317I)-phosphorylated); 0.95% in experiment [2]; 100% in experiment [3]; 3.9% in experiment [4]; 30% in experiment [5]. The compound also gave a remaining binding at 1 µM in experiment [6] of 9.6%.
Take `CCNc1nc(Nc2ccc(C(=O)N3CCC(N4CCOCC4)CC3)cc2OC)nc2[nH]cc(C(F)(F)F)c12` [Example 104, (4-((4-(ethylamino)-5-(trifluoromethyl)-7H-pyrrolo[2,3-d]pyrimidine-2-yl)amino)-3-methoxyphenyl)(4-morpholinopiperidine-1-yl)methanone]: the remaining binding at 1 µM in experiment [1] (ABL1(F317I)-nonphosphorylated) was determined as 56%; in experiment [1] (ABL1(F317I)-phosphorylated), 29%; in experiment [2], 100%; in experiment [3] it was 98%; in experiment [4], 78%; in experiment [5] it was 100%. Also, the remaining binding at 1 µM in experiment [6] was 90%.
